The values that follow come from patent US20110152166A1, “METHOD OF MODULATION OF PROTEIN PHOSPHORYLATION-DEPENDENT CONFORMATIONAL TRANSITIONS WITH LOW MOLECULAR WEIGHT COMPOUNDS” (priority 2006, published 2011).

Type in all cases: biochemical
Assay [1] deals with T1, GST-PDK1 [Ile119Ala] (Homo sapiens, UniProt O15530, I119A).
T1 construct: different protein constructs, comprising the full length protein or the catalytic domain alone; made in house; host or cells: HEK293 cells (pEBG-2T-PDK1 mutant)
T1 sequence (O15530 1-556 I119A): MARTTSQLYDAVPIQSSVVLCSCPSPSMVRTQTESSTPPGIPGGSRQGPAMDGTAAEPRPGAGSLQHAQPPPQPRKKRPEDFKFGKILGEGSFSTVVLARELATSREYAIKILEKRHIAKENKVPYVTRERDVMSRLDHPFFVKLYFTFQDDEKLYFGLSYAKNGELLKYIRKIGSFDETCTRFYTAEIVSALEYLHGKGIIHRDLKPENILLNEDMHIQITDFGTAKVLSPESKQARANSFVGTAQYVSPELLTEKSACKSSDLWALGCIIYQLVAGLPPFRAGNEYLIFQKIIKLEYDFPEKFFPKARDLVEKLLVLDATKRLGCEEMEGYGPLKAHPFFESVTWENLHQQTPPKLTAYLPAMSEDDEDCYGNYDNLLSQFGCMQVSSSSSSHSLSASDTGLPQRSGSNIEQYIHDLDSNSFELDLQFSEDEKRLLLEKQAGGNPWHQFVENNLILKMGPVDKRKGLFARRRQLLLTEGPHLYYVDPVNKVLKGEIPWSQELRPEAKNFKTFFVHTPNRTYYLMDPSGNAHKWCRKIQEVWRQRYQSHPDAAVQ
Nature of the assay: PDK1 activity assay with T308tide. Particulars: for AC50 / Max. activity: GST-PDK1 [Ile119Ala].

Assay [2] deals with T2, PKBa[Ser473Asp] (Homo sapiens, UniProt P31749, S473D).
T2 construct: made in house; host or cells: HEK293
Put plainly: AGC kinase panel activity assay (Crosstide). On the procedure: (§1) Protein kinase activity tests were performed essentially as previously described (Balendran et al., 2000; Biondi et al., 2000; Biondi et al., 2001). Substrates used were either MBP (for PKCζ or polypeptides (Crosstide for PKB, S6K, SGK and PRK2; T308tide for PDK1, and Kemptide for PKA). PKA (Sigma) was measured in the presence of 100 μM cAMP. Alternatively, assays were performed in a 96 well format, aliquots spotted on p81 phosphocellulose papers (Whatmann), washed in 0.01% phosphoric acid, dried, and then exposed and analysed using Phospholmager technology (Storm, Molecular Dynamics). Activity measurements were performed in duplicates with less than 10% difference between duplicate pairs. Experiments were repeated at least twice, although most of the experiments were repeated multiple times, with similar results.
(§2) Activity assays for each kinase were performed as described in Materials and Methods in the presence of 1% DMSO (100%). Except PKA, all protein kinases were produced as a GST-fusion. S6K1, PKBα, SGK mutants used were S6K1-T2-[Thr412Glu], PKBa[Ser473Asp] and ΔN-SGK[Ser422Asp].

The target in assay [3] is T3, ΔN-SGK[Ser422Asp] (Homo sapiens, UniProt O00141, S422D).
T3 construct: made in house; host or cells: HEK293
T3 sequence (O00141 61-431 S422D limits assumed): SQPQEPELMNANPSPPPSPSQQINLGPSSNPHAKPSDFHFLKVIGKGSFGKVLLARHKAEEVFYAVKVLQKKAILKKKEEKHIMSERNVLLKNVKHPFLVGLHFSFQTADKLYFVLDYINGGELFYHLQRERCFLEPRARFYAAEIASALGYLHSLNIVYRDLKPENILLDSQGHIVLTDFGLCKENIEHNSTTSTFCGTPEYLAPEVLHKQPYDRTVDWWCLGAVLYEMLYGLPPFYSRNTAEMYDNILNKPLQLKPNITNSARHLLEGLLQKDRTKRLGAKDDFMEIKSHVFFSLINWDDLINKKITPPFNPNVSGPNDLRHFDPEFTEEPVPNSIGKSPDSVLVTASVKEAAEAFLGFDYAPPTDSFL
Put plainly: AGC kinase panel activity assay (Crosstide). To be noted: for SGK1 (%) activity: 1% DMSO = 100%. On the procedure:
as §1, §2

Assay [4] concerns the target T4, S6K1-T2-[Thr412Glu] (Homo sapiens, UniProt P23443, T412E).
T4 construct: made in house; host or cells: HEK293
Put plainly: AGC kinase panel activity assay (Crosstide). To be noted: for S6K1 (%) activity: 1% DMSO = 100%. Here is the method: as §1, §2

Assay [5] deals with T5, PRK2 (Homo sapiens, UniProt Q16513).
T5 construct: made in house; host or cells: HEK293
Put plainly: AGC kinase panel activity assay (Crosstide). To be noted: for PRK2 (%) activity: 1% DMSO = 100%. Here is the method:
as §1, §2

Square brackets hold non-standard residues; d marks the D form. Ends that are not written are not given here. pS = N[C@@H](COP(=O)(O)O)C(=O)O

T2 sequence (P31749 whole entry S473D): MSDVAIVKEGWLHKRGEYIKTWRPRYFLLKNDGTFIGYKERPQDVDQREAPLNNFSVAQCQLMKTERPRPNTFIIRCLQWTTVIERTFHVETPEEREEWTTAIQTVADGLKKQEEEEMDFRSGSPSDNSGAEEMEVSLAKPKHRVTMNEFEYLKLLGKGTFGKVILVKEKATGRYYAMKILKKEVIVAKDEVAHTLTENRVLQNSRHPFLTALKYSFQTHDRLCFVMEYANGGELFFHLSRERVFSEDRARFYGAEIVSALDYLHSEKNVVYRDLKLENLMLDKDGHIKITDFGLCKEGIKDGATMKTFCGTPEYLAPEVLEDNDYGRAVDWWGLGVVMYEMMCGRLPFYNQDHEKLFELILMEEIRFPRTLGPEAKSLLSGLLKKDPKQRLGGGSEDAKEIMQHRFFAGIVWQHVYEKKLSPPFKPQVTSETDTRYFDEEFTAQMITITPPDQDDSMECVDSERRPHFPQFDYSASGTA
T5 sequence (Q16513 501-984): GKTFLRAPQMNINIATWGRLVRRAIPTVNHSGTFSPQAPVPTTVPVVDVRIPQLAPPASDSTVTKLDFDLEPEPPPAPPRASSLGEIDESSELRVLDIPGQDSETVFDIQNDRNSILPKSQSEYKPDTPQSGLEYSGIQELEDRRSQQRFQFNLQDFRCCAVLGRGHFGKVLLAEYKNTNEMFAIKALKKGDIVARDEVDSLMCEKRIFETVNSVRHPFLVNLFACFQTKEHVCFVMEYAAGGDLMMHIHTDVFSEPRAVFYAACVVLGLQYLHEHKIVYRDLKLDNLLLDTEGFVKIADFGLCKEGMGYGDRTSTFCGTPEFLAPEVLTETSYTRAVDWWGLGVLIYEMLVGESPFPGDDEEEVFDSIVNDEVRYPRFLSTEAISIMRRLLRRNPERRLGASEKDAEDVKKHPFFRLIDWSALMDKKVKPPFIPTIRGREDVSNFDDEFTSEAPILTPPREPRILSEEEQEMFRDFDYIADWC
T4 sequence (P23443 1-421 T412E limits assumed): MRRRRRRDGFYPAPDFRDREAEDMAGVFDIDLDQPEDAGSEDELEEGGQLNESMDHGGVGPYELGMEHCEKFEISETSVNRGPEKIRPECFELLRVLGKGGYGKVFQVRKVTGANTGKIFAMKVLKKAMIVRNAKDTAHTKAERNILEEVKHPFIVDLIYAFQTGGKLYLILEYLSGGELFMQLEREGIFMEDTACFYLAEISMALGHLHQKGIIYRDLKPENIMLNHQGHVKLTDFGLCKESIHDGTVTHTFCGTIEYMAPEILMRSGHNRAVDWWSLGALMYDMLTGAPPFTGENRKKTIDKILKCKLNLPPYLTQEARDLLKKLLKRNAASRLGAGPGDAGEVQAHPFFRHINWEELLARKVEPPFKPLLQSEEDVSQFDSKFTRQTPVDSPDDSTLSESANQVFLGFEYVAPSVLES

As a reminder, the AC50 is the concentration giving half of the maximal activity seen. The low end stands for activity at low concentration, the high end for activity only at high concentration. Compound `O=C(O)CSC(CC(=O)c1ccc(Cl)cc1)c1ccccc1` (stereo not shown) [Compound 1] yielded a concentration at half-maximal activity (AC50) in assay [1] of 90 ± 20 µM. This compound had a Max. activity in assay [1] of 2.1 ± 0.23 U/mg. For the same compound, in assay [2] (20 μM), the “effect on PKBa/AKT1 activity (in words)” value was “no significant effect”. The activity at 20 µM in assay [2] (20 μM compound, 1% DMSO = 100%, read-out: PKBα (%) activity) amounted to 89%. Besides, in assay [2] (200 μM compound, 1% DMSO = 100%, read-out: PKBα (%) activity), the activity at 200 µM is 85%. In addition, in assay [3] (20 μM), the “effect on SGK1 activity (in words)” value was “no significant effect”. The figures for the “SGK1 (%) activity” value in assay [3] (20 μM compound) and in assay [3] (200 μM compound) were 97% and 61%, respectively. Further, the “effect on S6K activity (in words)” value in assay [4] (20 μM) is on record as “no significant effect”. For the same compound, the “S6K1 (%) activity” value in assay [4] (20 μM compound) is 109%; in assay [4] (200 μM compound), 110%. Also, in assay [5] (20 μM), the “effect on PRK2 activity (in words)” value was “no significant effect”. For the same compound, the “PRK2 (%) activity” value worked out at 103% in assay [5] (20 μM compound) and 110% in assay [5] (200 μM compound).

On to `COC(=O)CSC(CC(=O)c1ccc(Cl)cc1)c1ccccc1` (stereo not shown) [Compound 2], for which the “PKBα (%) activity” value in assay [2] (20 μM compound, 1% DMSO = 100%) is listed as 92%; in assay [2] (200 μM compound, 1% DMSO = 100%) it was 106%. Besides, the “SGK1 (%) activity” value worked out at 89% in assay [3] (20 μM compound) and 92% in assay [3] (200 μM compound). Further, the “S6K1 (%) activity” value in assay [4] (20 μM compound) is listed as 109%; in assay [4] (200 μM compound) it was 120%. For the same compound, the “PRK2 (%) activity” value in assay [5] (20 μM compound) amounted to 106%; in assay [5] (200 μM compound) it was 89%.

With “P-HM-RSK: phosphorylated HM polypeptide of RSK: KGAGGGGFRGFS(P)FVA (KGAGGGGFRGF[pS]FVA)”, the “activation of PDK1 mutant (in words)” value in assay [1] (Ile119 mutant, P-HM-RSK 20 μM) is reported as “completely abolished”.

As for “REPRILSEEEQEMFRDFDYIADWC [PIFtide, reference compound]”, in assay [1], the AC50 was found to be 0.66 ± 0.14 µM and the Max. activity is recorded as 2.58 ± 0.17 U/mg.
